# Measurements: patent US20190070124A1, “COMPOSITIONS OF CB2 RECEPTOR SELECTIVE AGONISTS FOR TREATMENT OF MENTAL DISORDERS” (priority 2016, published 2019)
# “Also recorded” adds a separate entry of the source.
# Experiments:
# [1] = air exposed, after 5 weeks; cited from earlier work
# [2] = test system: murine model of schizophrenia; assay: Social interaction test in a novel environment, PCP mouse model; type: in vivo, mice; conditions: PND 88-89; postnatal PCP 5 mg/kg; oral BCP 10 mg/kg twice a week, PND 43-62
# Description: (§1) BCP was diluted in canola oil. BCP (10 mg/kg diluted in canola oil) was administered to adolescent mice (PND 43-62) by gavage twice a week (on Sunday and Wednesday) for 3 weeks, a total of 6 gavages. Control group and PCP-induced group received by gavage the oil vehicle.
# Each mouse was placed in a novel cage together with a nonaggressive intruder mouse of the same species, same sex and a similar age. The interaction between the two mice was recorded for 10 minutes with EthoVision software (Noldus). Social interaction was defined by contact between the mice (tracking nose point). Reduced duration of contact behavior indicates on impairment in social interaction.
# CYP2D6 = CYP2D6 (Homo sapiens, UniProt P10635); assay: CYP450 enzymatic metabolism in human liver microsomes
# Description: CYP450 dependent activities were determined using a known substrate. […] A known inhibitor, such as quinidine, tested at a single concentration 3.00 μM was included as positive control. Incubation mixture containing human liver microsomes (0.1 mg/mL), substrate (5 μM) and standard inhibitor or test compound were warmed at 37 C for 10 minutes. Reactions were initiated by addition of the NADPH (1 mM) and the mixture was incubated for 20 minutes at 37° C. water bath. The organic solvent in the reaction mixture was DMSO. After incubation, ice cold acetonitrile was added to terminate the reaction. Generation of metabolite from the substrate reactions was determined by LC-MS/MS and assessed based on peak area ratios of analyte/IS. Mean was used to calculate the extent of inhibition (expressed as % of control activity).
# [3] = test system: murine model of schizophrenia; assay: Forced-swimming test in the PCP mouse model; type: in vivo, mice; conditions: PND 83; postnatal PCP 5 mg/kg; oral BCP 10 mg/kg twice a week, PND 43-62
# Description: as §1
# Training was conducted for 6 min a day before the test. Each mouse was placed into a transparent glass cylinder filled with fresh water at 25° C. On the test day, the total duration/frequency of immobility and climbing was counted every 2 minutes for 6 minutes. An increased immobility is an index of learning and habituation, therefore a positive behavioral adaptation with a stressful condition.
# [4] = test system: murine model of schizophrenia; assay: PhenoTyper cage behaviour in the PCP mouse model; type: in vivo, mice; conditions: BCP 5 mg/kg PND 43-61
# [5] = test system: murine model of schizophrenia; assay: Open-field test (ambulation, rearing, grooming) in the PCP mouse model
# Description: Mice were assessed for hyperactivity behavior on postnatal day 16 (FIG. 2). Mice were placed in the center of a transparent glass cube cage 30×40 X31 cm divided into squares of 7.5×7.5 cm. The number of squares and rearing activity were counted for 8 min.
# Mice were assessed for hyperactivity behavior on postnatal day 64-66. Mice were placed in the center of a transparent glass cube cage 30×40 X31 cm divided into squares of 7.5×7.5 cm. The number of squares and rearing activity were counted for 8 min.
# [6] = test system: murine model of schizophrenia; assay: Elevated Plus Maze test in the PCP mouse model; type: in vivo, mice
# Description: Anxiety as measured by the paucity of time spent on the two, anxiety-provoking, open arms (as opposed to the two enclosed arms) of an “Elevated Plus Maze” was used as a parameter of negative symptoms of schizophrenia (Josselyn and Vaccarino, 1998). The plus maze was elevated 50 cm above the table top. Behavior of each mouse was recorded for 5 min by a video camera and scored using the “EthoVision” software (Noldus Information Technology, Wageningen, The Netherlands), measuring the number of entries as well as the amount of time spent in each arm, open or closed. Increased time spent in the closed arms indicated increased anxiety. Increased time spent in the opened arms indicated anxiolytic behavior (reduced stress).
# [7] = test system: murine model of schizophrenia; assay: Prepulse inhibition (PPI) of the startle reflex in the PCP mouse model; type: in vivo, mice
# Description: In this experimental model, a weak stimulus (74-90 dB tone) inhibited the subsequent response to a strong stimulus (120 dB tone). Reduced prepulse inhibition of the startle reflex (PPI) was taken as an index of the positive symptoms of schizophrenia (Josselyn and Vaccarino, 1998).
# PPI was assessed similarly to the method described by Varty et al. In the employed model, mice were placed in a startle chamber and allowed to acclimate for 5 min. A loudspeaker produced a 65 dB background white noise or the various acoustic pre-pulse stimuli (dB): 74, 78, 82, 86, and 90 (20 ms). A 120 dB (40 ms) stimulus was given first to induce a response to startle. The response of the mouse was transduced and stored by a computer. Each test session lasted for 11 min and consisted of 5 presentations of each of the trial types presented in random order and separated by 15 second intervals. The amount of prepulse inhibition was calculated as % PPI=[1−(startle response for prepulse+pulse)/(startle response for pulse alone)]×100.
# The % PPI indicates of level of disruption of the sensorimotor gating system in schizophrenia but also serves as an indicator of memory function. The % PPI after administration of PCP and treatment of BCP in the PPI test also serve as an index of memory function, further supporting the function of the sensorimotor system.
# [8] = PND 91, females and males, postnatal PCP
# [9] = PND 17, BCP 10 mg/kg 1 h after PCP, ethanol-based vehicle
# [10] = PND 35-37, postnatal BCP 10 mg/kg 1 h after PCP
# [11] = age 13 weeks, postnatal BCP 10 mg/kg 1 h after PCP
# [12] = PND 68, no PCP, BCP 5 mg/kg PND 43-61
# [13] = PND 68, postnatal PCP, BCP 5 mg/kg PND 43-61
# [14] = PND 106, postnatal PCP, BCP 5 mg/kg PND 43-61
# [15] = age 8 weeks, postnatal BCP 10 mg/kg 1 h after PCP
# Sequence of CYP2D6 (P10635 whole entry): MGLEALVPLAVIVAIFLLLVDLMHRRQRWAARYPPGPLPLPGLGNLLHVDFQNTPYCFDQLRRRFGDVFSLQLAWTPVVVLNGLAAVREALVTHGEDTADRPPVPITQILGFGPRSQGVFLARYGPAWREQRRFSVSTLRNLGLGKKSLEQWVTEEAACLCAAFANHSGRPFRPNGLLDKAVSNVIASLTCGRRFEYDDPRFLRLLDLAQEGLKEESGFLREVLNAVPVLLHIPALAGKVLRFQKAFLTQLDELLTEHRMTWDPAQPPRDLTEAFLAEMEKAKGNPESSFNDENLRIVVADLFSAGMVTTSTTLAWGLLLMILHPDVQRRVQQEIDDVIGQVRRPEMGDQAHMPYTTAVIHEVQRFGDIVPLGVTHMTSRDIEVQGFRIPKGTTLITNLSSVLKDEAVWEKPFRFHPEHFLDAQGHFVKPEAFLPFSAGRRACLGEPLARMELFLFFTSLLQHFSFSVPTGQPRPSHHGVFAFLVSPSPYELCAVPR
substance,measurement,setting,value
"trans-(1R,9S)-8-methylene-4,11,11trimethylbicyclo[7.2.0]undec-4-ene [BCP]",original compound consumed by autoxidation,[1],~50%
same,"social interaction, male mice",[2],reversed the effect of 5 mg/kg PCP on social interaction of male mice in the social interaction test
same,risperidone-induced inhibition of CYP2D6 in the presence of BCP,"CYP2D6; BCP combined with risperidone at a fixed concentration equivalent to IC50, human liver microsomes",significantly reduced the risperidone-induced inhibition of CYP2D6; also recorded: blocked the effect of risperidone and restored the activity of CYP2D6 enzyme
same,inhibitory effect on CYP2D6,CYP2D6; human liver microsomes,0-20 % inhibition
same,inhibition of CYP2D6 enzymatic activity,"CYP2D6; human liver microsomes 0.1 mg/mL, 20 min, 37 C",slightly inhibited CYP2D6
same,"duration of immobility in the forced swim test, male mice",[3],reversed the effect of 5 mg/kg PCP on the duration of immobility of male mice in the forced swim test; also recorded: reversed the effect of PCP on mice in the open field test (29A) and in the forced swim test
same,frequency of entries to the wheel,[4]; [8],reversed the effects of PCP on the frequency of entries to the wheel in the Phenotyper cage both in females and males
same,time spent in the Hidden Zone,[4]; [8],reversed the effects of PCP on the time spend in the Hidden Zone of PhenoTyper cage in females and males; also recorded: reversed the effects of PCP on the time spent in the hidden zone
same,time spent at the drinking zone,"[4]; PND 91, compared with PCP-treated group",appeared to reduce the time spend at the drinking zone
same,"frequency of entries to the Hidden Zone, males","[4]; PND 91, postnatal PCP",reversed the effect of PCP in males
same,time spent in the food zone,"[4]; PND 91, postnatal PCP",did not affect the time spend in the food zone
same,frequency of entries to the Wheel Zone,"[4]; PND 105, postnatal PCP",appeared to reduce the effect of PCP on the frequency of entries to the Wheel Zone
same,frequency of entries to the hidden zone,"[4]; PND 105, postnatal PCP",reversed the effects of PCP on the frequency of entries to the hidden zone; also recorded: reversed the effect of PCP on frequency of entries to hidden zone
same,time spent at the hidden zone,"[4]; PND 105, postnatal PCP",reversed the effects of PCP on the time spend at the hidden zone; also recorded: reversed the effect of PCP on time spent at the hidden zone
same,time spent in the wheel zone,"[4]; PND 105, postnatal PCP",showed a trend to reverse the effect of PCP on the time spend in the wheel; also recorded: not the time spent in the wheel zone
same,open-field rearing and exploration,"[5]; PND 17, male mice, BCP 10 mg/kg 1 h after each PCP 5 mg/kg injection (Cremophor EL:DMSO:saline)",reversed the effects of PCP on rearing and exploration
same,open-field ambulation and rearing,"[5]; PND 17, males, BCP 10 mg/kg 1 h after PCP, DMSO-based carrier",completely reversed the effects of PCP on ambulation
same,"open-field ambulation and rearing, females",[5]; [9],reversed a proportion of the effects of PCP on ambulation and rearing behavior of female mice
same,"open-field locomotor activity, males",[5]; [9],appeared to be less sensitive to the treatment of PCP or PCP+BCP
same,open-field rearing and exploration,[5]; [9],reversed the effects of PCP on rearing and exploration
same,"open-field locomotor activity (ambulation), males",[5]; [10],reduced locomotor activity; also recorded: significantly reversed the effect of PCP in males
same,"open-field rearing and exploration, females",[5]; [10],no differences in rearing and exploration behaviors were seen between the different groups
same,"open-field rearing, males",[5]; [10],significantly reduced rearing behavior as compared to vehicle and PCP-treated groups
same,open-field rearing,"[5]; PND 63, females and males, postnatal PCP, BCP 5 mg/kg injected twice a week PND 43-61",reversed the effect of PCP on rearing in both females and males
same,open-field ambulation,"[5]; PND 63, male and female, postnatal PCP, BCP 5 mg/kg injected twice a week PND 43-61",significantly reversed the effect of postnatal treatment of PCP on ambulation in male and female mice at PND 63
same,open-field exploration compared with saline-treated mice,"[5]; PND 63, BCP 5 mg/kg injected twice a week PND 43-61",significantly inhibited the exploration of mice compared with saline-treated mice
same,"open-field exploratory behavior, females","[5]; PND 104 (last BCP treatment PND 61), postnatal PCP, BCP 5 mg/kg PND 43-61",relapse in exploratory behavior was evident
same,"self-grooming (total, without stimuli)","[5]; PND 104, females or males, postnatal PCP, BCP 5 mg/kg PND 43-61",did not reverse the effect of PCP on self-grooming; also recorded: did not reverse the effect of PCT on grooming at PND104
same,"open-field rearing (and exploration), males","[5]; PND 104, postnatal PCP, BCP 5 mg/kg PND 43-61",still significantly higher than that of PCP-treated mice with no BCP treatment; also recorded: improved exploration and rearing behaviors of male PCP treated mice at PND 104
same,"activity in the open field test, female mice","[5]; postnatal PCP 5 mg/kg, BCP 10 mg/kg in canola oil by gavage twice a week, PND 43-62",reversed the effect of 5 mg/kg PCP on activity of female mice in the open field test
same,plus maze open/close or open/(close+open) duration and frequency,"[6]; PND 64, postnatal PCP, BCP 5 mg/kg PND 43-61",no effect at age 64; also recorded: did not reverse the effects of PCP in plus maze test
same,behavior in the open arm of the Elevated Plus Maze,"[6]; PND 110, postnatal PCP, BCP 5 mg/kg PND 43-61",significantly reversed the effects of PCP on behavior in the open arm of the Elevated Plus Maze
same,time spent in closed arm or open arm,"[6]; age 13 weeks, females and males, postnatal BCP 10 mg/kg 1 h after PCP",no significant change in the time spent in the closed arm or open arm
same,"time spent in distal end of the opened arm, females",[6]; [11],reversed this effect
same,"time spent in distal end of the opened arm, males",[6]; [11],reversed this effect
same,behavior in the close arm of the Elevated Plus Maze,"[6]; age 64 days, postnatal PCP, BCP 5 mg/kg PND 43-61",significantly reversed the effects of PCP on behavior in the close arm of the Elevated Plus Maze
same,pre-pulse inhibition in saline-treated mice,[7]; [12],no substantial effect on saline-treated mice
same,response to pre-pulse tones in saline-treated mice,[7]; [12],no effect on saline-treated mice
same,response to pre-pulse tones,[7]; [13],significantly reversed the effect of PCP on response to pre-pulse tones; also recorded: reversed the effect of PCP on the response to tone
same,startle response at the end of the PPI test,[7]; [13],did not affect the response to startle at the end of the PPI test
same,"startle response, females",[7]; [13],significantly reversed the effect of PCP on startle response in females
same,"startle response, males",[7]; [13],no difference in the response to the startle stimuli between groups
same,pre-pulse inhibition (% PPI),"[7]; PND 68, postnatal PCP, BCP 5 mg/kg injected twice a week PND 43-61",significantly reversed the effect of PCP on pre-pulse inhibition; also recorded: reversed the effect of PCP on PPI
same,% pre-pulse inhibition (PPI),[7]; [14],reversed the effect of PCP on the % pre-pulse inhibition (PPI); also recorded: reversed the effect of PCP on attention at PND106 (PPI test)
same,response to the startle stimuli (120 dB),[7]; [14],no difference in the response to the startle stimuli (120 dB) between groups
same,response to tones,[7]; [14],reversed the effect of PCP on the response to tones
same,response to startle stimuli,"[7]; age 8 weeks, males and females, postnatal BCP 10 mg/kg 1 h after PCP",not significantly different between groups
same,"% prepulse inhibition, females",[7]; [15],No significant difference
same,"% prepulse inhibition, males",[7]; [15],reversed this effect; also recorded: significantly reversed the effect of PCP on the sensorimotor-gate in males
